According to PMC3669347, “A Multi-System Approach Assessing the Interaction of Anticonvulsants with P-gp” (PLoS ONE, 2013):
Like-named read-outs stand apart in the source and are kept apart here.

What was measured:
[1] = test system: human P-gp; settings: cited from earlier work; for Substrate of P-gp (published evidence): Transfected human P-gp cell lines, equilibrium
[2] = test system: P-gp; settings: cited from earlier work; for Brain accumulation affected by rodent P-gp: MDR1 knockout mice; for Substrate of P-gp (published evidence): MDR1 KO Mouse
[3] = target: T1, P-gp (Sus scrofa, UniProt K7GMM7); assay: Permeability assay in primary porcine brain endothelial cells (PBECs); format: in vitro ADME; settings: for Effect of verapamil or tariquidar treatment on apical to basolateral Papp: 6µM drug, 1 hour, 100µM verapamil, 300nM tariquidar; for Interaction with P-gp observed: Primary porcine brain endothelial
T1 sequence (K7GMM7 1-1248): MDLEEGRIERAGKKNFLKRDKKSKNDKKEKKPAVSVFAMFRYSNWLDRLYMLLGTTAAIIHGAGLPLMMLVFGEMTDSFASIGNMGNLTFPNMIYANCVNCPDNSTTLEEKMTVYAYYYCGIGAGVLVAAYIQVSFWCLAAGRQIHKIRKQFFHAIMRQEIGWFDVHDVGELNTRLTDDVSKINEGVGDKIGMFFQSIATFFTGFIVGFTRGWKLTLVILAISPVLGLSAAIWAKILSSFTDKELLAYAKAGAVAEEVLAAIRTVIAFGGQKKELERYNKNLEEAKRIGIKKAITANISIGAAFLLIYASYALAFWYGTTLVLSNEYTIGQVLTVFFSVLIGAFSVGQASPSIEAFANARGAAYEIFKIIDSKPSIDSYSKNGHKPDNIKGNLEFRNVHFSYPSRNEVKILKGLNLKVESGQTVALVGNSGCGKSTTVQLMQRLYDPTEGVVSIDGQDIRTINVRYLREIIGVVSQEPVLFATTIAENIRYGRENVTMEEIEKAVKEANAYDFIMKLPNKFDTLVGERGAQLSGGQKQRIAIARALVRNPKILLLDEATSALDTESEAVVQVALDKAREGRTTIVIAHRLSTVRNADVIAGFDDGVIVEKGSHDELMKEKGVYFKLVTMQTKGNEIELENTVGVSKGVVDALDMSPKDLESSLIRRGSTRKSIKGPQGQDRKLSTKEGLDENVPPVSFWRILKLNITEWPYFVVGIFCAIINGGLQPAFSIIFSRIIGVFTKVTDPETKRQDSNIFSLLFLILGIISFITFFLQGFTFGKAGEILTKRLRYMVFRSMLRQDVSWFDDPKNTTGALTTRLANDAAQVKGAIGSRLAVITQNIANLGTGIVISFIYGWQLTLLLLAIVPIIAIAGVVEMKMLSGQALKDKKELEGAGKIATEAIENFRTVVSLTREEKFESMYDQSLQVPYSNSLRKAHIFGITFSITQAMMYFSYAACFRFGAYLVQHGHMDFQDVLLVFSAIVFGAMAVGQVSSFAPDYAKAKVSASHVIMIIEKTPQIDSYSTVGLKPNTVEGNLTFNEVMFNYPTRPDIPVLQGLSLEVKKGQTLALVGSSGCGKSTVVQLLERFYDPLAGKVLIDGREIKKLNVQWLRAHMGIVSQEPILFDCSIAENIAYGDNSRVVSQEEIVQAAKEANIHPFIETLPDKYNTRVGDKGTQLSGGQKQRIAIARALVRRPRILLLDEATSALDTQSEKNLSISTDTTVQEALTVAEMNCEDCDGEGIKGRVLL
Method: The porcine brain microvessel isolation and culture protocol was based on previously published papers, [29]with modifications. Briefly, brains from six pigs (Cheale Meats Ltd., Brentwood, UK) were washed. The grey matter was homogenised, filtered, digested, centrifuged and microvessels cryopreserved.
The PBECs were seeded onto rat-tail collagen/fibronectin-coated transwell filter inserts at a density of 1×10^5cells/cm^2. […] This was conducted to elevate intracellular cAMP and thereby encourage differentiation of BBB phenotype including tight junctions. Cell monolayers were used when TEER exceeded 340 Ω.cm^2. For permeability assays, DMEM without phenol red with added HEPES (25mM) and 0.1% BSA was pH adjusted to 7.4 and used as transport medium. […] Samples were taken from both compartments.Apparent permeability (Papp) in cm/s for the compounds studied was calculated as previously described.

[4] = target: T2, P-gp (Homo sapiens, UniProt P08183); settings: for Effect of tariquidar on accumulation in hCMEC/D3 cells: 5µM drug, 30 minutes, 300nM tariquidar; for Interaction with P-gp observed: Human brain endothelial cell line (hCMEC/D3)
T2 sequence (P08183 whole entry): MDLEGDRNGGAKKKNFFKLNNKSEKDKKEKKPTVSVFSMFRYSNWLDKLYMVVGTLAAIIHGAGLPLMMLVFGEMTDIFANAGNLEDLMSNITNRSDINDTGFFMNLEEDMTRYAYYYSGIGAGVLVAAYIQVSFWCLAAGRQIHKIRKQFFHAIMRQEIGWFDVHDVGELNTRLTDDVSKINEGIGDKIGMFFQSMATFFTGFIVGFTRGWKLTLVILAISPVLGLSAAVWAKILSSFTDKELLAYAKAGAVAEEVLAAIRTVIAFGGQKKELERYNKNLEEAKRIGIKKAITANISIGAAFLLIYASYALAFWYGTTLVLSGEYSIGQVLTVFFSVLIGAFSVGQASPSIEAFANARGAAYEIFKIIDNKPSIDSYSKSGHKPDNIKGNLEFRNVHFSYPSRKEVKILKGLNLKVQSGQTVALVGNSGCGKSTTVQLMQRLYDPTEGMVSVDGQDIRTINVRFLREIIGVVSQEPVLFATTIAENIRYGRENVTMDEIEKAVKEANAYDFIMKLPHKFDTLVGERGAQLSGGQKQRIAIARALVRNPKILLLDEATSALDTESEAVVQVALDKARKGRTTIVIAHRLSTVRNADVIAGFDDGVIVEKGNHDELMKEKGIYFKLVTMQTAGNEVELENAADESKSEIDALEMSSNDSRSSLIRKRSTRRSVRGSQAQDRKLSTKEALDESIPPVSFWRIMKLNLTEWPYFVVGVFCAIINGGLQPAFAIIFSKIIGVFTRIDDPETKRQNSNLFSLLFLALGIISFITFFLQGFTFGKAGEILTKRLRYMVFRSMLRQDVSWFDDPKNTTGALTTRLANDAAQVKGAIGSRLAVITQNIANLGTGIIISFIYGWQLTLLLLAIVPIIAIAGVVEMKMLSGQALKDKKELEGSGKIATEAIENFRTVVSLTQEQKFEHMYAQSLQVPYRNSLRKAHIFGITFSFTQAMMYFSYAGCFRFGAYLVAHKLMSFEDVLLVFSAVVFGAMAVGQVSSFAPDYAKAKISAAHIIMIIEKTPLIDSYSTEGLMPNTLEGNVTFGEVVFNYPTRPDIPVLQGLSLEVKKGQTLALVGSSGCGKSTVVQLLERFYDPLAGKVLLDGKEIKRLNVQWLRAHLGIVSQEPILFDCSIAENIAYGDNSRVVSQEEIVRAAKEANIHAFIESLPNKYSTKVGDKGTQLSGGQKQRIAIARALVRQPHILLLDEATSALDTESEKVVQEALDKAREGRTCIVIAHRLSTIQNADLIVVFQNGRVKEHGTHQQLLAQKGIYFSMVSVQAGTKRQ
Method: Cells were equilibrated in transport buffer (HBSS containing 25mM HEPES and 0.1% (w/v) bovine serum albumin at pH 7.4) at 37°C with accumulation assays performed as previously described [24], [25].

[5] = target: T1, P-gp; parameters: method as in PMID 12954800; settings: porcine brain endothelial cells, cited from earlier work
[6] = test system: mouse P-gp; settings: Transfected mouse P-gp cell line; bi-directional transwell method; cited from earlier work
[7] = test system: human P-gp; settings: Transfected human P-gp cell lines; bi-directional transwell; cited from earlier work
[8] = test system: P-gp; settings: Microdialysis/brain access in rodent models; cited from earlier work
[9] = test system: P-gp; settings: cited from earlier work
[10] = test system: P-gp; settings: cited from earlier work; remark: listed apart in the source
[11] = target: T2, P-gp; assay: Cellular accumulation assay in CEM and VBL100 cells; settings: for Accumulation in VBL100 cells compared with CEM cells / Effect of tariquidar on accumulation in VBL100 cells: 5µM drug, 30 minutes; for Effect of tariquidar on accumulation in VBL100 cells: 300nM tariquidar; for Interaction with P-gp observed: CEM/VBL cells
[12] = target: T2, P-gp; assay: Concentration equilibrium transport assay in Caco-2 cells; settings: for Polarised transport in Caco-2 concentration equilibrium assay: 5µM drug, 4 hour time course, ±300nM tariquidar; for Interaction with P-gp observed: Caco-2 (equilibrium method)
[13] = target: T2, P-gp; assay: Concentration equilibrium transport assay in MDCKII±P-gp cells; settings: for Transport into the apical compartment, MDCKII-P-gp vs parental MDCKII cells: 5µM drug, 6 hour time course, ±300nM tariquidar; for Interaction with P-gp observed: MDCK±P-gp (equilibrium method)
[14] = target: T2, P-gp; assay: Concentration equilibrium transport assay in LLC-PK1±P-gp cells; settings: for Transport into the apical compartment, LLC-PK1-P-gp vs parental LLC-PK1 cells: 5µM drug, 6 hour time course, ±300nM tariquidar; for Interaction with P-gp observed: LLC-PK1±P-gp (equilibrium method)
[15] = target: T2, P-gp; assay: X. laevis oocyte P-gp drug transport assay (efflux and accumulation); settings: for Accumulation in oocytes expressing human P-gp vs water-injected oocytes: 20µM drug ±40µM PSC833, 1 hour; for Accumulation in oocytes expressing human P-gp vs water-injected oocytes / Efflux from P-gp injected oocytes vs water-injected oocytes: 22°C; for Interaction with P-gp observed: Xenopus laevis oocytes expressing human P-gp; for Efflux from P-gp injected oocytes vs water-injected oocytes: intra-oocyte 1µM digoxin or 5µM phenytoin, 45 minutes
[16] = target: T2, P-gp; parameters: induced multi-drug resistance through over-expression of P-gp; endogenous in cells; host or cells: CEM (low P-gp) and VBL100 (vinblastine-selected, high P-gp) cells; method as in PMID 11318771, PMID 16882549; settings: Caco-2 bi-directional transwell; cited from earlier work
[17] = target: T2, P-gp; parameters: induced multi-drug resistance through over-expression of P-gp; endogenous in cells; host or cells: CEM (low P-gp) and VBL100 (vinblastine-selected, high P-gp) cells; method as in PMID 12954800; settings: LLC-PK1-P-gp cells, 100µM drug; cited from earlier work
[18] = target: T2, P-gp; parameters: induced multi-drug resistance through over-expression of P-gp; endogenous in cells; host or cells: CEM (low P-gp) and VBL100 (vinblastine-selected, high P-gp) cells; method as in PMID 17326793; settings: Primary human brain endothelial cells; cited from earlier work
[19] = target: T2, P-gp; parameters: induced multi-drug resistance through over-expression of P-gp; endogenous in cells; host or cells: CEM (low P-gp) and VBL100 (vinblastine-selected, high P-gp) cells; method as in PMID 17326793; settings: Primary epileptic derived human brain endothelial cells; cited from earlier work
[20] = target: T2, P-gp; parameters: induced multi-drug resistance through over-expression of P-gp; endogenous in cells; host or cells: CEM (low P-gp) and VBL100 (vinblastine-selected, high P-gp) cells; settings: cited from earlier work

## NC(=O)N1c2ccccc2C2OC2c2ccccc21 (centres unmarked) [carbamazepine-10,11-epoxide]
[1]
  Transport by P-gp, concentration equilibrium approach: does transport

## Nc1nnc(-c2cccc(Cl)c2Cl)c(N)n1 [lamotrigine]
[2]
  Brain accumulation affected by rodent P-gp: not
[1]; LLC-PK1-P-gp, concentration equilibrium approach, ref 18 (Luna-Tortos et al)
  Inhibition by tariquidar of P-gp mediated transport: 60%

## NC(=O)N1c2ccccc2C=Cc2ccccc21 [carbamazepine]
[3]
  Effect of verapamil or tariquidar treatment on apical to basolateral Papp: decrease
  Interaction with P-gp observed: No
[4]
  Effect of tariquidar on accumulation in hCMEC/D3 cells: No effect of tariquidar
  Interaction with P-gp observed: No
[5]; 10µM
  Inhibition of uptake of calcein AM: not at 10µM
[5]; 100µM
  Inhibition of uptake of calcein AM: able to inhibit
[2]
  Substrate of P-gp (published evidence): No
  Brain accumulation affected by rodent P-gp: not
[6]
  Substrate of P-gp (published evidence): No
[7]
  Substrate of P-gp (published evidence): No
[1]
  Substrate of P-gp (published evidence): No
  Transport by P-gp, concentration equilibrium approach: does not transport
[8]
  Substrate of P-gp (published evidence): Yes
[9]
  Stimulation of P-gp ATPase activity (published evidence): No
[10]
  Calcein-AM P-gp inhibition assay (published evidence): No
[11]
  Accumulation in VBL100 cells compared with CEM cells: significantly higher accumulation
  Effect of tariquidar on accumulation in VBL100 cells: not inhibited by tariquidar
  Interaction with P-gp observed: No
[12]
  Polarised transport in Caco-2 concentration equilibrium assay: No polarised transport
  Interaction with P-gp observed: No
[13]
  Transport into the apical compartment, MDCKII-P-gp vs parental MDCKII cells: no difference
  Interaction with P-gp observed: No
[14]
  Transport into the apical compartment, LLC-PK1-P-gp vs parental LLC-PK1 cells: no transport
  Interaction with P-gp observed: No
[15]
  Accumulation in oocytes expressing human P-gp vs water-injected oocytes: No differences
  Interaction with P-gp observed: No
[16]
  Substrate of P-gp (published evidence): No
[17]
  Inhibition of the uptake of the P-gp substrate: no inhibition

## O=C1NC(=O)C(c2ccccc2)(c2ccccc2)N1 [phenytoin]
[3]
  Effect of verapamil or tariquidar treatment on apical to basolateral Papp: not affected
  Interaction with P-gp observed: No
[4]
  Effect of tariquidar on accumulation in hCMEC/D3 cells: No effect of tariquidar
  Interaction with P-gp observed: No
[2]
  Substrate of P-gp (published evidence): Yes/No
  Brain accumulation affected by rodent P-gp: affects brain accumulation
[6]
  Substrate of P-gp (published evidence): Yes/No
[7]
  Substrate of P-gp (published evidence): No
[1]
  Substrate of P-gp (published evidence): Yes
[8]
  Substrate of P-gp (published evidence): Yes
[9]
  Stimulation of P-gp ATPase activity (published evidence): No
[10]
  Calcein-AM P-gp inhibition assay (published evidence): No
[11]
  Accumulation in VBL100 cells compared with CEM cells: No significant decrease in accumulation or tariquidar inhibition
  Interaction with P-gp observed: No
[12]
  Polarised transport in Caco-2 concentration equilibrium assay: No polarised transport
  Interaction with P-gp observed: No
[13]
  Transport into the apical compartment, MDCKII-P-gp vs parental MDCKII cells: more phenytoin was transported into the apical compartment
  Interaction with P-gp observed: Yes –“weak”
[14]
  Transport into the apical compartment, LLC-PK1-P-gp vs parental LLC-PK1 cells: higher in LLC-PK1-P-gp cells and inhibitable by tariquidar
  Interaction with P-gp observed: Yes –“weak”
[15]
  Accumulation in oocytes expressing human P-gp vs water-injected oocytes: No differences
  Interaction with P-gp observed: No
  Efflux from P-gp injected oocytes vs water-injected oocytes: No difference
[16]
  Substrate of P-gp (published evidence): No
[18]
  Substrate of P-gp (published evidence): No
[19]
  Substrate of P-gp (published evidence): Yes
[17]
  Inhibition of the uptake of the P-gp substrate: no inhibition

## C[C@H]1O[C@@H](O[C@H]2[C@@H](O)C[C@H](O[C@H]3[C@@H](O)C[C@H](O[C@H]4CC[C@@]5(C)[C@H](CC[C@@H]6[C@@H]5C[C@@H](O)[C@]5(C)[C@@H](C7=CC(=O)OC7)CC[C@]65O)C4)O[C@@H]3C)O[C@@H]2C)C[C@H](O)[C@@H]1O [digoxin]
[11]
  Accumulation in VBL100 cells compared with CEM cells: less accumulation
  Effect of tariquidar on accumulation in VBL100 cells: tariquidar restored accumulation
[12]
  Polarised transport in Caco-2 concentration equilibrium assay: transported into the apical compartment and this was inhibited by tariquidar
[13]
  Transport into the apical compartment, MDCKII-P-gp vs parental MDCKII cells: significant increase in apical concentration
[14]
  Transport into the apical compartment, LLC-PK1-P-gp vs parental LLC-PK1 cells: significantly higher transport
[15]; imatinib data not shown
  P-gp substrate status in oocyte expression system: confirmed to be substrates
[15]
  Efflux from P-gp injected oocytes vs water-injected oocytes: higher efflux
[15]; intra-oocyte 1µM digoxin, 40µM PSC833
  Effect of PSC-833 on efflux from P-gp injected oocytes: reduced

## Cc1ccc(NC(=O)c2ccc(CN3CCN(C)CC3)cc2)cc1Nc1nccc(-c2cccnc2)n1 [imatinib]
[20]
  Identified as P-gp substrate with CEM and VBL100 cells: P-gp substrates

## CC1(C)CCC(c2ccc(Cl)cc2)=C(CN2CCN(c3ccc(C(=O)NS(=O)(=O)c4ccc(N[C@H](CCN5CCOCC5)CSc5ccccc5)c(S(=O)(=O)C(F)(F)F)c4)cc3)CC2)C1 [ABT-263]
[20]
  Identified as P-gp substrate with CEM and VBL100 cells: P-gp substrates
